Three molecules from patent US12539406B2, “Electrostimulation based drug delivery system and method for using thereof” (City University of Hong Kong, priority 2022, dated 2026) can be followed below.

Data set [1] can be described thus: model drug release into agarose gel. Type of data set: physicochemical. The conditions noted are these: PLGA II microneedle patch inserted into agarose gel, 5 days. The source says: The Rhodamine B-loaded PLGA II microneedle patch is then inserted into an agarose gel with a parafilm layer. The gel becomes red after the insertion of PLGA II microneedle patch loaded with Rhodamine B after 5 days while the control sample is still white. The insertion holes created by PLGA II with Rhodamine B show a higher florescence intensity (right panel in FIG. 4A) compared with that of the agar inserted by pure PLGA II microneedle patch (left panel in FIG. 4A).

The nature of data set [2]: long-term drug release from PLGA microneedle patches in PBS. Type of data set: physicochemical. The following applies: loaded in PLGA II microneedle patch, PBS solution at 37° C., after 15 days. The procedure:
In addition, the long-term drug release performance of the PLGA II microneedle patch is conducted by loading aspirin and ibuprofen, which are two commonly used drugs in anti-inflammation. Aspirin- and ibuprofen-loaded PLGA microneedle patches are immersed in PBS solution at 37° C. for one month. […] The aspirin releases more than 80% while ibuprofen releases around 70% after 15 days, indicating a promising drug delivery performance of the PLGA microneedles.
Commercial aspirin (99%, Rhawn) or ibuprofen (98%, Macklin) were dissolved in chloroform and mixed with PLGA solution, where the mass of aspirin and ibuprofen are the weight ratio of 10% and 5% of PLGA polymers, respectively. Then the composite solution was added in a PDMS microneedle mold. The solutions in the mold were put in a vacuum over at 40° C. until no solvent remained. Finally, the solidified PLGA microneedles with mold were put at 100° C. heating stage for 2 h to remove residual solvent. After that, the obtained PLGA microneedles were heat pressed on the wireless electric stimulative electrodes, followed by depositing W (˜1000 nm) on the PLGA microneedle to yield the conductive microneedle electrodes.

Regarding `CCN(CC)c1ccc2c(-c3ccccc3C(=O)O)c3ccc(=[N+](CC)CC)cc-3oc2c1.[Cl-]` [Rhodamine B], the “release of model drug from microneedle tips (fluorescence)” value in data set [1] is listed as “successfully released”.
Turning to `CC(=O)Oc1ccccc1C(=O)O` [aspirin], the drug release ratio result in data set [2] is listed as “more than 80%”.
With `CC(C)Cc1ccc(C(C)C(=O)O)cc1` (stereo not drawn) [ibuprofen], in data set [2], the drug release ratio entry was “around 70%”.
